Data published in patent publication US10799496B2, “Naphthylenyl compounds for long-acting injectable compositions and related methods” (priority 2018, dated 2020).

Experiment: Pharmacokinetic evaluation of the release of naltrexone from Compound 2 in rats following a single intramuscular injection
Format: in vivo, Sprague-Dawley rats
Details: for Compound 2 conc.: rat plasma
Experimental: Five male Sprague-Dawley rats were allowed to acclimate to the test facility for at least 2 days prior to study start. For dose administration of Compound 2, the rats were lightly anesthetized with isofluorane, the hind leg shaved and dosed intramuscularly with the formulation using a 21G needle. […] Serial whole blood samples were collected via sublingual route (˜150 μL) at 1, 8, and 24 hours post dose, and at 2, 4, 7, 10, 14, 17, 21, 24, 28, 35, 42, 49, 56, 63, 71, 78, 85, and 91 days post dose.
Blood samples were placed into K2EDTA blood collection tubes. After collection, blood samples were maintained chilled (on wet ice) and centrifuged (11,500 rpm for 2 minutes at 5 degrees C.) within 30 minutes to obtain plasma. Plasma was transferred into a single vial, 1.5 mL screw cap micro-centrifuge tube with inserts and stored at −80 degrees C. until analysis.
The formulation dosed was a crystalline suspension of Compound 2 (46 milligrams of Compound 2 dosed per animal), wherein the crystalline test article was characterized with a particle size distribution of Dv10=12.9 μm, Dv50=31.5 μm, and Dv90=63.1 μm (as measured via laser diffraction). The formulation was prepared the day before dosing. Details of the formulation dosed are described in Table D below.
Results of the above intramuscular rat study of Compound 2 are shown in Tables E and F. In particular, Table E reports the average blood plasma levels of naltrexone in rat (n=5) over 91 days following intramuscular administration.

O=C(Cc1ccc2cc(CC(=O)Oc3ccc4c5c3O[C@H]3C(=O)CC[C@@]6(O)[C@@H](C4)N(CC4CC4)CC[C@]536)ccc2c1)Oc1ccc2c3c1O[C@H]1C(=O)CC[C@@]4(O)[C@@H](C2)N(CC2CC2)CC[C@]314 [Compound 2, bis((4R,4aS,7aR,12bS)-3-(cyclopropylmethyl)-4a-hydroxy-7-oxo-2,3,4,4a,5,6,7,7a-octahydro-1H-4,12-methanobenzofuro[3,2-e]isoquinolin-9-yl) 2,2′-(naphthalene-2,6-diyl)diacetate]
Compound 2 conc. (single i.m. dose of Compound 2, day 28, Rat 1): 0.236 ng/mL
Compound 2 conc. (single i.m. dose of Compound 2, day 28, Rat 2): 0.193 ng/mL
Compound 2 conc. (single i.m. dose of Compound 2, day 28, Rat 3): 0.205 ng/mL
Compound 2 conc. (single i.m. dose of Compound 2, day 28, Rat 4): 0.176 ng/mL
Compound 2 conc. (single i.m. dose of Compound 2, day 28, Rat 5): 0.111 ng/mL
Compound 2 conc. (single i.m. dose of Compound 2, day 35, Rat 1): 0.165 ng/mL
Compound 2 conc. (single i.m. dose of Compound 2, day 35, Rat 2): 0.439 ng/mL
Compound 2 conc. (single i.m. dose of Compound 2, day 35, Rat 3): 0.350 ng/mL
Compound 2 conc. (single i.m. dose of Compound 2, day 35, Rat 4): 0.265 ng/mL
Compound 2 conc. (single i.m. dose of Compound 2, day 35, Rat 5): 0.152 ng/mL
Compound 2 conc. (single i.m. dose of Compound 2, day 42, Rat 1): 0.155 ng/mL
Compound 2 conc. (single i.m. dose of Compound 2, day 42, Rat 2): 0.156 ng/mL
Compound 2 conc. (single i.m. dose of Compound 2, day 42, Rat 3): 0.212 ng/mL
Compound 2 conc. (single i.m. dose of Compound 2, day 42, Rat 4): 0.199 ng/mL
Compound 2 conc. (single i.m. dose of Compound 2, day 42, Rat 5): 0.205 ng/mL
Compound 2 conc. (single i.m. dose of Compound 2, day 49, Rat 1): <0.1 ng/mL
Compound 2 conc. (single i.m. dose of Compound 2, day 49, Rat 2): <0.1 ng/mL
Compound 2 conc. (single i.m. dose of Compound 2, day 49, Rat 3): <0.1 ng/mL
Compound 2 conc. (single i.m. dose of Compound 2, day 49, Rat 4): <0.1 ng/mL
Compound 2 conc. (single i.m. dose of Compound 2, day 49, Rat 5): <0.1 ng/mL
Compound 2 conc. (single i.m. dose of Compound 2, day 56, Rat 1): 0.358 ng/mL
Compound 2 conc. (single i.m. dose of Compound 2, day 56, Rat 2): 0.205 ng/mL
Compound 2 conc. (single i.m. dose of Compound 2, day 56, Rat 3): 0.105 ng/mL
Compound 2 conc. (single i.m. dose of Compound 2, day 56, Rat 4): 0.170 ng/mL
Compound 2 conc. (single i.m. dose of Compound 2, day 56, Rat 5): 0.163 ng/mL
Compound 2 conc. (single i.m. dose of Compound 2, day 63, Rat 1): <0.1 ng/mL
Compound 2 conc. (single i.m. dose of Compound 2, day 63, Rat 2): <0.1 ng/mL
Compound 2 conc. (single i.m. dose of Compound 2, day 63, Rat 3): <0.1 ng/mL
Compound 2 conc. (single i.m. dose of Compound 2, day 63, Rat 4): 0.142 ng/mL
Compound 2 conc. (single i.m. dose of Compound 2, day 63, Rat 5): <0.1 ng/mL
Compound 2 conc. (single i.m. dose of Compound 2, day 71, Rat 1): <0.1 ng/mL
Compound 2 conc. (single i.m. dose of Compound 2, day 71, Rat 2): <0.1 ng/mL
Compound 2 conc. (single i.m. dose of Compound 2, day 71, Rat 3): <0.1 ng/mL
Compound 2 conc. (single i.m. dose of Compound 2, day 71, Rat 4): <0.1 ng/mL
Compound 2 conc. (single i.m. dose of Compound 2, day 71, Rat 5): <0.1 ng/mL
Compound 2 conc. (single i.m. dose of Compound 2, day 78, Rat 1): <0.1 ng/mL
Compound 2 conc. (single i.m. dose of Compound 2, day 78, Rat 2): <0.1 ng/mL
Compound 2 conc. (single i.m. dose of Compound 2, day 78, Rat 3): <0.1 ng/mL
Compound 2 conc. (single i.m. dose of Compound 2, day 78, Rat 4): <0.1 ng/mL
Compound 2 conc. (single i.m. dose of Compound 2, day 78, Rat 5): <0.1 ng/mL
Compound 2 conc. (single i.m. dose of Compound 2, day 85, Rat 1): <0.1 ng/mL
Compound 2 conc. (single i.m. dose of Compound 2, day 85, Rat 2): <0.1 ng/mL
Compound 2 conc. (single i.m. dose of Compound 2, day 85, Rat 3): <0.1 ng/mL
Compound 2 conc. (single i.m. dose of Compound 2, day 85, Rat 4): <0.1 ng/mL
Compound 2 conc. (single i.m. dose of Compound 2, day 85, Rat 5): <0.1 ng/mL
Compound 2 conc. (single i.m. dose of Compound 2, day 91, Rat 1): <0.1 ng/mL
Compound 2 conc. (single i.m. dose of Compound 2, day 91, Rat 2): <0.1 ng/mL
Compound 2 conc. (single i.m. dose of Compound 2, day 91, Rat 3): <0.1 ng/mL
Compound 2 conc. (single i.m. dose of Compound 2, day 91, Rat 4): <0.1 ng/mL
Compound 2 conc. (single i.m. dose of Compound 2, day 91, Rat 5): <0.1 ng/mL
plasma concentrations of parent Compound 2 and the resultant intermediate (rat, single i.m. dose of Compound 2, over 91 days): generally low to not measurable
conversion of Compound 2 in rats to naltrexone (rat, single i.m. dose, over 91 days): efficient conversion
